# Values joined by “and” are separate entries in the source; they are usually repeats but may differ in a detail not shown here. Equal entries are not always repeated.
# How the values were obtained:
# [1] = target: T1, WT-CFTR (Homo sapiens, UniProt P13569); test: Halide-sensitive YFP microplate reader assay of CFTR potentiation, WT-CFTR; assay type: cell-based; settings: FRT cells, 0.1 μM forskolin
# T1 construct: expressed in transfected cells; host or cells: Fisher rat thyroid (FRT) cells, co-expressing halide sensor YFP-H148Q/I152L; provided by Dr. Alan Verkman
# Method: FRT cells expressing wild type- or ΔF508-CFTR with the halide sensor YFP-H148Q/I152L were plated in 96-well black-walled microplates (Corning Inc., Corning, NY) at a density of 2 x10^4cells per well. FRT-WT-CFTR-YFP cells were incubated for 48 h at 37°C, and FRT-ΔF508-CFTR-YFP cells were incubated for 24 h at 27°C after 24 h incubation at 37°C to rescue ΔF508-CFTR localization. Assays were done using FLUO star Omega microplate reader (BMG Labtech, Ortenberg, Germany) and MARS Data Analysis Software (BMG Labtech). Each well of a 96-well plate was washed 3 times in PBS (200 μL/wash). 100 μL PBS was added to each well. Forskolin (0.1 and 10 μM for WT- and ΔF508-CFTR, respectively) and test compounds (1 μL) were added to each well. After 10 min, 96-well plates were transferred to the microplate reader preheated to 37°C for fluorescence assay. Each well was assayed individually for CFTR-mediated I^- influx by recording fluorescence continuously (200 ms per point) for 2 s (baseline), then 100 μL of 140 mM I^- solution was added at 2 s and then YFP fluorescence was recorded for 14 s. Initial iodide influx rate was determined from the initial slope of fluorescence decrease, by nonlinear regression, following infusion of iodide.
# [2] = target: T1, WT-CFTR; test: Apical membrane current (Ussing chamber) in FRT cells expressing WT-CFTR; assay type: cell-based
# Method: (§1) Snapwell inserts containing CFTR-expressing FRT and primary culture of human nasal epithelial cells were mounted in Ussing chambers (Physiologic Instruments, San Diego, CA). Forskolin, genistein, CP7q and CFTRinh-172 were added to the apical and basolateral bath solution. For FRT cells, the apical bath was filled with a half-Cl^- solution and the basolateral bath was filled with HCO3^—buffered solution, and the basolateral membrane was permeabilized with 250 μg/mL amphotericin B. For primary cultures of human nasal epithelial cells, symmetrical HCO3^—buffered solutions were used and ENaC was inhibited by pre-treatment with amiloride (100 μM). All cells were bathed for a 20 min stabilization period and aerated with 95% O2 / 5% CO2 at 37°C. Apical membrane current and short-circuit current were measured with an EVC4000 Multi-Channel V/I Clamp (World Precision Instruments, Sarasota, FL) and recorded using PowerLab 4/35 (AD Instruments, Castle Hill, Australia). Data were collected and analyzed with ADInstruments acquisition software Labchart Pro 7 software. The sampling rate was 4 Hz.
# [3] = target: ΔF508-CFTR (Homo sapiens, UniProt P13569, DEL508-508); test: Immunoblot of ΔF508-CFTR band C/B in A549-ΔF508-CFTR cells; assay type: cell-based; parameters: expressed in transfected cells; settings: 48 h, combined with 5 μM VX-809, 10 μM CP7q, vs VX-809 alone
# Method: A549 cells stably expressing ΔF508-CFTR were lysed with cell lysis buffer (50 mM Tris-HCl, pH 7.4, 1% Nonidet P-40, 0.25% sodium deoxycholate, 150 mM NaCl, 1 mM EDTA, 1 mM Na3VO4, and protease inhibitor mixture). Whole cell lysates were centrifuged at 15,000 g for 10 min at 4°C to remove the cell debris, and equal amounts (80 μg protein/lane) of supernatant protein were separated by 4–12% Tris-glycine precast gel (KOMA BIOTECH, Seoul, Korea) and then transferred onto PVDF membrane (Millipore, Billerica, MA). Membrane was blocked with 5% non-fat skim milk in PBS including 0.05% Tween 20 for 1 hour at room temperature. This membrane was then incubated overnight with primary CFTR antibody (M3A7, Millipore, Billerica, MA). After washing with 0.05% Tween 20 in PBS (PBST), the blot was further incubated for 45 min at room temperature with an anti-mouse secondary antibody (Cell Signaling). The membrane was then washed three times with PBST for 5 minutes and then visualized using the ECL Plus western blotting detection system (GE Healthcare Amersham; Piscataway, NJ). The immunoblot results were analyzed quantitatively by ImageJ Software.
# [4] = target: T2, CFTR (Homo sapiens, UniProt P13569); test: Short-circuit current in primary cultures of normal human nasal epithelial cells; assay type: cell-based; settings: 0.5 μM forskolin, amiloride pretreatment
# T2 construct: endogenous in cells; host or cells: primary cultures of normal human nasal epithelial cells (provided by Dr. Jaeyoung Choi), passage 2, air-liquid interface
# Method: as §1
# [5] = test system: HT-29 cells; test: MTS cell viability assay; assay type: cell-based, human; settings: 24 h, up to 10 μM
# Method: HT-29 human colon adenocarcinoma cells were plated at a density of 1 x10^4 per cm^2on 96-well microplates. After 24 h incubation, cells were treated with hydroxypyrazolines and then incubated for 1 day. An equal amount of DMSO was added to the all control. The culture medium and the compounds were changed every 12 h. For MTS assay, the cells were reincubated with MTS for 1 hour. The soluble formazan produced by cellular reduction of MTS was quantified by measuring the absorbance at 490 nm with Infinite M200 (Tecan, Grödig, Austria) microplate reader. MTS assay was done using CellTiter 96® AQueous One Solution Cell Proliferation Assay kit (Promega, Madison, WI, USA).
# [6] = target: T3, G551D-CFTR (Homo sapiens, UniProt P13569, G551D); test: Apical membrane current (Ussing chamber) in FRT cells expressing G551D-CFTR; assay type: cell-based
# T3 construct: expressed in transfected cells; host or cells: Fisher rat thyroid (FRT) cells; provided by Dr. Alan Verkman
# Method: as §1, with “Forskolin, genistein, CP7q and CFTRinh-172 were added to the apical and basolateral bath solution.” left out, “All cells were bathed for a 20 min stabilization period and aerated with 95% O2 / 5% CO2 at 37°C.” left out
# T3 sequence (P13569 whole entry G551D): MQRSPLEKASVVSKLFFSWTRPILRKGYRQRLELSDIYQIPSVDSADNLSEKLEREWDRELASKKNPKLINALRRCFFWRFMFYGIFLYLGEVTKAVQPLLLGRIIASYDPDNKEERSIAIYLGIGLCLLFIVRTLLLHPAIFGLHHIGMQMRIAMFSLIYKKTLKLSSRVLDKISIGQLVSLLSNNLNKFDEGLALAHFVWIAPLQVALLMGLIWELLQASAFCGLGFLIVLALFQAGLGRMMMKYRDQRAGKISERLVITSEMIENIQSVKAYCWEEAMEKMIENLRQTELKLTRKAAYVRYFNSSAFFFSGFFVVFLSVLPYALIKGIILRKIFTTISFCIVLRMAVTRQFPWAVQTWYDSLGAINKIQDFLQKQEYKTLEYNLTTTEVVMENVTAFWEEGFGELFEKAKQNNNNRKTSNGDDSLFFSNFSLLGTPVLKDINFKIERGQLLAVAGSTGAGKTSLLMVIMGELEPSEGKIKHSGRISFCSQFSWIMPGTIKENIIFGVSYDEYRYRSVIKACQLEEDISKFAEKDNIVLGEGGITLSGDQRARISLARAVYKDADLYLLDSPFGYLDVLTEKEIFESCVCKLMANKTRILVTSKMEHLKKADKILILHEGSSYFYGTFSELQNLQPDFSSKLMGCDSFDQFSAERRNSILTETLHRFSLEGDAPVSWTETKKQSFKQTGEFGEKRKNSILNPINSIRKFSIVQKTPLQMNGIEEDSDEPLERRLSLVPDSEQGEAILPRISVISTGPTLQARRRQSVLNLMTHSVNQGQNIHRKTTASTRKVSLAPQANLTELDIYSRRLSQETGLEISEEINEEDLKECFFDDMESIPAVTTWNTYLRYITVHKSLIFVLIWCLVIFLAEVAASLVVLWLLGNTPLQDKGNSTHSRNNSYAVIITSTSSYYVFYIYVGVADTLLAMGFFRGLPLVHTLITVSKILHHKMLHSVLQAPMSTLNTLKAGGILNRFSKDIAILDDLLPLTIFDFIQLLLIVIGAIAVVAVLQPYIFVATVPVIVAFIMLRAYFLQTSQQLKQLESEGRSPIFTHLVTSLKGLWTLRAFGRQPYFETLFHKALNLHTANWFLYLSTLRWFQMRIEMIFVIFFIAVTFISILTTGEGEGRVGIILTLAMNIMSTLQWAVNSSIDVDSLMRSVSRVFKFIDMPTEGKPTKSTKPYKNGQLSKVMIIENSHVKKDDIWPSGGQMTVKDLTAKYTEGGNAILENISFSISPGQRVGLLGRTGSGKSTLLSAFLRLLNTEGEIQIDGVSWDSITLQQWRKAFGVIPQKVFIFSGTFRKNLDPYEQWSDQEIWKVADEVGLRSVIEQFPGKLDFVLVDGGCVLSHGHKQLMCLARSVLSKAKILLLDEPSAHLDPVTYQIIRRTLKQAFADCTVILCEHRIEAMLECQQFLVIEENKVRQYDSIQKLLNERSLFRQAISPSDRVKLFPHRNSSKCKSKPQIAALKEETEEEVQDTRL
# T2 sequence (P13569 whole entry): as the sequence (P13569 whole entry G551D) above, with D551G counted along it
# Chain of ΔF508-CFTR (P13569 with tags, fused parts or gaps DEL508-508): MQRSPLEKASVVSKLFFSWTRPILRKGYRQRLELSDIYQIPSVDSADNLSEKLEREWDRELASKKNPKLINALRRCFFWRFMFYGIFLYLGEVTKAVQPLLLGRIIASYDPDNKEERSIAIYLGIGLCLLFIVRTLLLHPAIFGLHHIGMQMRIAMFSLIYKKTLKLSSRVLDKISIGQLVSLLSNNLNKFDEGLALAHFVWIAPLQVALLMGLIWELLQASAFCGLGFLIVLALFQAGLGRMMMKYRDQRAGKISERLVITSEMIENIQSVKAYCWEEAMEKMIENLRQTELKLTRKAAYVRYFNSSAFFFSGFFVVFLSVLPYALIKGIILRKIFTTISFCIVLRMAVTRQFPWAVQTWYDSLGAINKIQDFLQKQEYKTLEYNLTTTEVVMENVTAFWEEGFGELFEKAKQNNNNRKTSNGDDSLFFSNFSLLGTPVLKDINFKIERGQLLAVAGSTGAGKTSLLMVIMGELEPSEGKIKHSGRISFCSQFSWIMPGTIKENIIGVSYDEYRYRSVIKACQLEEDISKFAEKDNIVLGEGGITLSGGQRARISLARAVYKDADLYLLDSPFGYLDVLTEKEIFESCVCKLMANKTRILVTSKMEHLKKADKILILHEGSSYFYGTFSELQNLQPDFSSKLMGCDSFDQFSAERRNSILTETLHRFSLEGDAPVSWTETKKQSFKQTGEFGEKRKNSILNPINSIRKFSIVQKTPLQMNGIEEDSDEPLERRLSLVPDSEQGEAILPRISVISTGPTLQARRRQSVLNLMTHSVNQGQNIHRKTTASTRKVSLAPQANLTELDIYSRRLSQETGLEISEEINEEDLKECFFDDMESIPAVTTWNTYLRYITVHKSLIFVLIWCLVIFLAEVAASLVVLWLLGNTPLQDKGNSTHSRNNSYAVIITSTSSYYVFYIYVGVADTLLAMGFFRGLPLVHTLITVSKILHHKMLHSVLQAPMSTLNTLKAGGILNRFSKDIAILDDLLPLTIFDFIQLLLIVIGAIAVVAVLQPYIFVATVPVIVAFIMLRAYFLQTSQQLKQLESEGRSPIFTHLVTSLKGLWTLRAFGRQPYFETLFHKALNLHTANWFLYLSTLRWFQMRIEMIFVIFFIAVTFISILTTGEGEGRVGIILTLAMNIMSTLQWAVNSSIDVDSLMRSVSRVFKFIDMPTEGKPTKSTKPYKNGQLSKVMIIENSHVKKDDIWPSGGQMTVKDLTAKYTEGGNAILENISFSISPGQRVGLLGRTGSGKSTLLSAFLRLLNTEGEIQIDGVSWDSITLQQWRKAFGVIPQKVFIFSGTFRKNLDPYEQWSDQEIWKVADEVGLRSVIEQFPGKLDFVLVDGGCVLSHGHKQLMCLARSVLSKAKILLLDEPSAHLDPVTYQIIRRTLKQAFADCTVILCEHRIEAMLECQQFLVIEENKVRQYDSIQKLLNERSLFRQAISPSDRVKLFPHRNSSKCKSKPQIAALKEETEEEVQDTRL
smiles,measurement,setting,value
"COc1ccc(C2CC(c3ccc(O)cc3O)=NN2c2ccc(S(N)(=O)=O)cc2)c(OC)c1 (stereo not shown) [Compound 7q, 4-[3-(2,4-dihydroxyphenyl)-5-(2,4-dimethoxyphenyl)-4,5-dihydro-1H-pyrazol-1-yl] benzenesulfonamide]",EC50,[1],0.9 µM
same,EC50,"[2]; FRT-WT-CFTR cells, 0.1 μM forskolin",880 nM and ~880 nM
same,Maximum efficacy of CFTR potentiation compared with genistein,[2]; WT-CFTR stimulated by 0.1 μM forskolin,significantly higher than that of genistein
same,Effect on ratio of band C to band B of ΔF508-CFTR,[3],strongly increased
same,Potentiation of CFTR Cl- current (short-circuit current),[4],remarkably potentiated
same,"Cytotoxicity (cell viability, MTS)",[5],no cytotoxicity
same,Potentiation of G551D-CFTR Cl- current compared with VX-770,"[6]; 20 μM forskolin, 30 μM CP7q vs 10 μM VX-770",comparable to VX-770
same,Potentiation of G551D-CFTR Cl- current relative to genistein,"[6]; 20 μM forskolin, 30 μM CP7q vs 50 μM genistein",1.9 times
same,Potentiation of G551D-CFTR Cl- current,"[6]; 20 μM forskolin, 50 μM genistein, 10 μM VX-770, CP7q",significantly potentiated
same,Maximal potentiation of G551D-CFTR chloride conductance relative to genistein,[6]; higher than genistein,1.9 fold
